These results are taken from patent US20160175221A1, “COMPOSITION FOR PREVENTING SKIN AGING CONTAINING ALOESIN OR DERIVATIVE THEREOF” (UNIVERA INC., priority 2013, published 2016).

SMILES strings stand for the structures.

Series [1] relates to type I procollagen peptide (PIP). The experiment in a line: PIP level in medium by procollagen type I C-peptide EIA kit. The format is cell-based, human. The settings on record: 0.01 μg/ml and 0.1 μg/ml. Here is the method: (§1) The concentrations of MMP-1 and PIP in the medium were determined using commercially available enzyme-linked immunosorbent assay (ELISA) kits (Human Total MMP-1 Kit, R&D Systems, Inc., Minneapolis, Minn., USA and procollagen type I C-peptide enzyme immunoassay (EIA) kit, Takara Inc., Shiga, Japan) according to the manufacturer's instructions. Each sample was analyzed in triplicate.

The test system of another series is procollagen type I mRNA. Nature of the series: RT-PCR of procollagen type I mRNA in UVB irradiated fibroblasts. The format is cell-based, human. The settings on record: NHDFs after UVB irradiation, 0.01 μg/ml, 0.1 μg/ml and 1 μg/ml, 24 hours; ratio to GAPDH; FIG. 4. Here is the method: (§2) After UVB irradiation, separation of RNA from aloesin treated normal human dermal fibroblasts (NHDFs) was performed using TRIZOL reagent (Invitrogen Life Technologies, Carlsbad, […]) according to the manufacturer's instructions. RNA (5 μg) was subjected to reverse transcription using 200 units of reverse transcriptase and 0.5 μg/μl of oligo-(dT) 15 primer (Bioneer Inc., Korea). The reaction was performed at 42° C. for 60 minutes, and then terminated by heating at 94° C. for five minutes. PCR amplification of cDNA template was performed using PCR premix (Bioneer Inc.) and the following primer pairs: MMP-1, forward 5′-ATTCTACTGATATCGGGGCTTTGA-3′, reverse 5′-ATGTCCTTGGGGTATCCGTGTAG-3′; procollagen type I, forward 5′-CTCGAGGTGGACACCACCCT-3′, reverse 5′-CAGCTGGATGGCCACATCGG-3′; and glyceraldehydes-3-phosphate […] (GAPDH), sense 5′-ACCACAGTCCATGCCATCAC-3′, antisense 5′-CCACCACCCTGTTGCTGTAC-3′. […]
(§3) To investigate mRNA levels of aloesin treated cells (24 hours after treatment), the concentration of MMP-1 and procollagen type I was measured in UVB irradiated normal human dermal fibroblasts. To quantify the data, the ratio of MMP-1/GAPDH and procollagen type I/GAPDH in normal human dermal fibroblasts was randomly set to 1.0, based on band signal intensity.

Series [2] concerns normal human dermal fibroblasts (NHDFs). Nature of the series: MTT colorimetric assay, cytotoxicity of treated cells. The settings on record: before and after UVB irradiation, 0.01 and 0.1 μg/ml before, 0.1 and 1 μg/ml after, 72 hours after treatment, FIG. 1. Background: Tetrazolium dyes change colour on reduction, which living cells bring about.
The next series concerns MMP-1 mRNA. Nature of the series: RT-PCR of MMP-1 mRNA in UVB irradiated fibroblasts. It is filed as cell-based, human. The settings on record: NHDFs after UVB irradiation, 0.01 μg/ml, 0.1 μg/ml and 1 μg/ml, 24 hours; ratio to GAPDH; FIG. 4. Here is the method:
as §2, §3

The subject of another series is MMP-1. Nature of the series: MMP-1 level in medium by ELISA (Human Total MMP-1 Kit). The settings on record: NHDFs after UVB irradiation (144 mJ/cm^2), 72 hours, FIG. 2. The format is cell-based. The protocol:
as §1
For orientation: In an ELISA, binding on a coated surface is turned into a signal by an enzyme label.

[3] abbreviates: NHDFs after UVB irradiation, 72 hours, FIG. 3b.
Where [4] appears, read: NHDFs prior to UVB irradiation, FIG. 3a.

With `CC(=O)Cc1cc(=O)c2c(C)cc(O)c([C@@H]3O[C@H](CO)[C@@H](O)[C@H](O)[C@H]3OC(=O)/C=C/c3ccc(O)cc3)c2o1` [aloeresin A], the PIP levels entry in series [1] (setting [3]) and in series [1] (setting [4]) was “significantly increased PIP levels” each time.

Consider `CC(=O)Cc1cc(=O)c2c(C)cc(O)c([C@@H]3O[C@H](CO)[C@@H](O)[C@H](O)[C@H]3O)c2o1` [aloesin], for which the “mRNA expression of procollagen type I” value with procollagen type I mRNA is listed as “significantly increased mRNA expression of procollagen type I”. In addition, in series [2], the cytotoxicity entry is “decreased cytotoxicity”. For the same compound, the “mRNA expression of MMP-1” value in the series with MMP-1 mRNA is “decreased mRNA expression of MMP-1”. For the same compound, the MMP-1 levels result in the series with MMP-1 (0.1 μg/ml) was “significantly decreased MMP-1 levels”. Besides, the PIP levels entry in series [1] (setting [3]) and in series [1] (setting [4]) was “significantly increased PIP levels” throughout.

For the compound `COc1cc(C)c2c(=O)cc(C[C@H](C)O)oc2c1[C@@H]1O[C@H](CO)[C@@H](O)[C@H](O)[C@H]1OC(=O)/C=C/c1ccc(O)cc1` [isoaloeresin D], the MMP-1 levels result in the series on MMP-1 (1 μg/ml) is “significantly decreased MMP-1 levels”. Besides, the PIP levels entry in series [1] (setting [3]) and in series [1] (setting [4]) was “significantly increased PIP levels” throughout.
